Tests used:
[1] = system: SA3-6A/B (DNA, aptamer) TGCGGAGGAAGGTTCGACCATCGTGCGGGTAGGTAGACC/GAACCTGGGGGAGTAGGTCTACCTACCCGCACGATGGTC; assay: UV melting, first-peak height; conditions: 150 mM NaCl, 5 mM MgCl2; 10 mM HEPES pH 7.4; 100 µM guanosine negative control; signal close to that of 5 µM adenosine
[2] = system: SA3-5A/B (DNA, aptamer) TGCGGAGGAAGGTTGAGGACCATCGTGCGGGTAGGTAGACC/GAGAACCTGGGGGAGTAGGTCTACCTACCCGCACGATGGTC; assay: UV melting at 260 nm; conditions: 150 mM NaCl, 5 mM MgCl2; 10 mM HEPES pH 7.4; 100 µM adenosine; peak at 28 °C only with adenosine, absent without
[3] = system: Apta6 (DNA, aptamer) GAACCTGGGGGAGTATTGCGGAGGAAGGTTC; assay: UV melting at 260 nm; conditions: 150 mM NaCl, 5 mM MgCl2; 10 mM HEPES pH 7.4; 100 µM adenosine; 0.9 µM strand; single hairpin peak
[4] = system: SA5-6A/B (DNA, aptamer) CCTGCGGAGGAAGGTTCGACCATCGTGCGGGTAGGTAGA/GAACCTGGGGGAGTAGGTCTACCTACCCGCACGATGGTC; assay: UV melting at 260 nm; conditions: 150 mM NaCl, 5 mM MgCl2; 10 mM HEPES pH 7.4; 100 µM adenosine; 0.9 µM strands; first (aptachain) peak
[5] = system: SA3-6A/B (DNA, aptamer) TGCGGAGGAAGGTTCGACCATCGTGCGGGTAGGTAGACC/GAACCTGGGGGAGTAGGTCTACCTACCCGCACGATGGTC; assay: UV melting at 260 nm; conditions: 150 mM NaCl, 5 mM MgCl2; 10 mM HEPES pH 7.4; 100 µM adenosine; 0.9 µM strands; first (aptachain) peak
[6] = system: SA5-8A/B (DNA, aptamer) CCTGCGGAGGAAGGTTCTCGACCATCGTGCGGGTAGGTAGA/GAGAACCTGGGGGAGTAGGTCTACCTACCCGCACGATGGTC; assay: UV melting at 260 nm; conditions: 150 mM NaCl, 5 mM MgCl2; 10 mM HEPES pH 7.4; 100 µM adenosine; 0.9 µM strands; first (aptachain) peak
[7] = system: SA5-5A/B (DNA, aptamer) CCTGCGGAGGAAGGTTGACCATCGTGCGGGTAGGTAGA/AACCTGGGGGAGTAGGTCTACCTACCCGCACGATGGTC; assay: UV melting at 260 nm; conditions: 150 mM NaCl, 5 mM MgCl2; 10 mM HEPES pH 7.4; 100 µM adenosine; 0.9 µM strands; first (aptachain) peak
[8] = system: SA3-6A/B (DNA, aptamer) TGCGGAGGAAGGTTCGACCATCGTGCGGGTAGGTAGACC/GAACCTGGGGGAGTAGGTCTACCTACCCGCACGATGGTC; assay: UV melting first-peak height, Langmuir fit; conditions: 150 mM NaCl, 5 mM MgCl2; 10 mM HEPES pH 7.4; 0.9 µM strands; peak normalized to dimer peak; apparent; per site

Nc1nc2c(ncn2[C@@H]2O[C@H](CO)[C@@H](O)[C@H]2O)c(=O)[nH]1
binding [1]: weak

Nc1ncnc2c1ncn2[C@@H]1O[C@H](CO)[C@@H](O)[C@H]1O
binding [2]: yes | ΔTm [3]: < 1 °C | ΔTm [4]: 2.5 °C | ΔTm [5]: 5.5 °C | ΔTm [6]: 2 °C | ΔTm [7]: 2.5 °C | KD [8]: 19 ± 2 µM

Reference: publication PMC8068264 (2021)
